Laboratory results as given in the NIST ThermoML archive (doi:10.1016/j.fluid.2006.06.024).
± gives the expanded uncertainty stated by the source.

Assay: activity coefficient (dimensionless); of the first substance listed, at infinite dilution; xn = mol fraction of the nth substance listed
Details: Gas, Chromatography, x1 = 0

Row | activity coefficient (374 K) | activity coefficient (412.5 K) | activity coefficient (394.8 K) | activity coefficient (375.2 K) | activity coefficient (412.6 K) | SMILES | activity coefficient (393.3 K)
1 | 7 ± 0.3 | 5.6 ± 0.3 | 6.1 ± 0.3 | – | – | C=CCC [1-butene] + CO | –
2 | 6.5 ± 0.3 | 5.4 ± 0.3 | – | – | – | C=C(C)C [2-methylpropene] + CO | 6 ± 0.3
3 | – | – | 6.6 ± 0.3 | 7.3 ± 0.3 | 6 ± 0.3 | C/C=C/C [(E)-2-butene] + CO | –

Row | SMILES | activity coefficient (374 K) | activity coefficient (412.5 K) | activity coefficient (394.8 K) | activity coefficient (375.2 K) | activity coefficient (412.6 K) | activity coefficient (393.3 K)
4 | C=CC=C [1,3-butadiene] + CO | 5 ± 0.2 | 4.2 ± 0.2 | – | – | – | 4.7 ± 0.2
